Values of other authors in patent publication US9610295B2, “Method for treating erectile dysfunction” (priority 2010, dated 2017).

Key:
[1] = in vivo
[2] = oral administration, Viagra formulation
[3] = molecular target: phosphodiesterase type 5 (PDE5) (Homo sapiens, UniProt O76074); details: PDE5 vs PDE6

For `CN1CC(=O)N2[C@H](c3ccc4c(c3)OCO4)c3[nH]c4ccccc4c3C[C@@H]2C1=O` [tadalafil, (6R-trans)-6-(1,3-benzodioxol-5-yl)-2,3,6,7,12,12a-hexahydro-2-methylpyrazino[1,2:1,6]-pyrido[3,4-6]indole-1,4-dione], the half-life [1] is listed as “about 17.5 hours”.

For `CCCc1nn(C)c2c(=O)[nH]c(-c3cc(S(=O)(=O)N4CCN(C)CC4)ccc3OCC)nc12` [sildenafil, 1-[[3-(6,7-dihydro-1-methyl-7-oxo-3-propyl-1H-pyrazolo[4,3-d]pyrimidin-5-yl)-4-ethoxyphenyl]sulfonyl]-4-methyl piperazine], the absolute bioavailability [2] is listed as “about 40%” and the “potency for PDE5 compared to PDE6” value [3] is listed as “about 10 fold”.
